Assays:
[1] = molecular target: T1, human ERK2 (Homo sapiens, UniProt P28482); test: LanthaScreen TR-FRET enzymatic assay, ERK2; conditions: IC50 values of ERK2 biochemical activity; 5 μM ATP, 400 nM ATF2-GFP substrate
T1 construct: recombinantly expressed as GST-tagged full-length protein purified from E. coli; GST; purchased Invitrogen PV3311; host or cells: E. coli
Method: Compounds were tested in a LanthaScreen™ time-resolved fluorescence energy transfer (TR-FRET) enzymatic assay from Invitrogen. The assay used human ERK2 (Mitogen Activated Kinase 1, Invitrogen, Cat. PV3311) recombinantly expressed as GST-tagged full-length protein purified from E. coli and activated in vitro with MAP2K1. The substrate was a recombinant truncated version (residues 19-96) of ATF2 fused with Green Fluorescent Protein (Invitrogen, Cat. PV4445). Test compounds were prepared and diluted in DMSO in 3-fold serial dilutions to 100× of the final testing concentrations. The compounds were then further diluted to 4× by the kinase reaction buffer (Invitrogen, Cat. PV3189). The enzymatic reaction for compound testing was performed in a white 384-well polypropylene plate (Packard, Cat. 6005214) with a total reaction volume of 10 μl containing 20 ng/ml ERK2, 400 nM substrate, and 5 μM ATP that is around its Km. The assay started with loading 2.5 μl of ERK2 diluted in kinase reaction buffer to wells, followed by addition of equal volume of 4× compounds for 15-min incubation at the room temperature for pre-treatment. The enzymatic reaction was initiated by addition of 5 μl of mixture of the substrate and ATP prepared in kinase reaction buffer. After one hour reaction, 10 μl mixture of EDTA (final 10 mM) and terbium-labeled anti-pATF2 (pThr71) antibody (final 2 nM) (Invitrogen, Cat. PV4451) prepared in TR-FRET antibody dilution buffer (Invitrogen, Cat. PV3574) was added to stop the enzymatic reaction and produce TR-FRET signals. After 30 minutes of incubation at room temperature, the plate was read in Tecan Infinite F200 Pro with the following settings: Excitation 340 nm (30)/Emission1 495 nm (10)/Emission2 520 nm (25). The TR-FRET values were dimensionless numbers that were calculated as the ratio of the acceptor ([…]) signal to the donor (Terbium) signal. Percent of control was calculated as the percentage of compound-treated vs 1% DMSO vehicle-treated. The dose-response curves were generated and the ICsos were calculated by nonlinear sigmoid curve fitting using GraphPad Prism.
The IC50 values of ERK2 biochemical activity for the examples disclosed herein are listed in Table 3, A: ≤10 nM; B: >10 nM and ≤50 nM; C: >50 nM and ≤100 nM; D.>100 nM.

[2] = system: Colo205 cell line; test: Colo205 cell proliferation assay (MTT assay, WST-8 readout); type: cell-based; conditions: Homo sapiens; IC50 values of growth inhibition in Colo 205 cells; 72 hours
Method: Compounds disclosed herein were tested for the inhibition of ERK2 by a Colo205 cell proliferation assay commonly known as MTT assay. In this assay, a complete media was prepared by adding 10% fetal bovine serum to RPMI-1640 medium (Life technology). Colon cancer cells (Colo205 cell line) were added to each of 88 wells of a 96 well plate at a seeding density of 5,000 cells/well/90 μL. The cells were allowed to attach to the plate by incubating at 37° C. for 24 hours. The compound was dissolved in DMSO (SIGMA). A solution of test compound was prepared in complete media by serial dilution to obtain the following concentrations: 500 μM, 150 μM, 50 μM, 15 μM, 5 μM, 1.5 μM, 0.5 μM, 0.15 μM and 0.05 μM. The test compound solution (10 μL) was added to each of 80 cell-containing wells. The final concentrations of the compound were following: 50 μM, 15 μM, 5 μM, 1.5 μM, 0.5 μM, 0.15 μM, 0.05 μM, 0.015 μM and 0.005 μM. The final concentration of DMSO is 0.5%. To the 8 remaining cell-containing wells, only complete media (containing 0.5% DMSO) was added to form a control group in order to measure maximal proliferation. To the remaining 8 empty wells, complete media was added to for a vehicle control group in order to measure background. The plates were incubated at 37° C. for 72 hours. 10 μL WST-8 solution (DOJINDO, Cell Counting KIT-8) was added to each well. The plates were further incubated at 37° C. for 2 hours, and then read for the absorbance using a microplate reader at 450 nm.
The IC50 values of growth inhibition in Colo 205 cells for Compounds disclosed are listed in Table 3, A′: ≤0.5 μM; B′: >0.5 μM and ≤1 μM; C′: >1.0 μM and ≤5 uM; D′: >5 μM.

T1 sequence (P28482 whole entry): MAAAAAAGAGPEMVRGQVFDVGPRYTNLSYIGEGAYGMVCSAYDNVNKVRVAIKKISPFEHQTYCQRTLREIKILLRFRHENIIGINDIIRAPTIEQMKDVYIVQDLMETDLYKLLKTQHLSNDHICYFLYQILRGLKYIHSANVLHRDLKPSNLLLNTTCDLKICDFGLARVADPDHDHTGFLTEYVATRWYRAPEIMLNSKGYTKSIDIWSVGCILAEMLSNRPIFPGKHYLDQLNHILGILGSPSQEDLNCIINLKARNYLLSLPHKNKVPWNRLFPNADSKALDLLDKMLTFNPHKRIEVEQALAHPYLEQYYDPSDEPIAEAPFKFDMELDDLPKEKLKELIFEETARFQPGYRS

Row | SMILES | IC50 [1] [nM] | IC50 [2] [nM]
1 | Cc1cc(-c2n[nH]c3ncc(-c4ccn([C@H](CO)c5ccc(Cl)c(F)c5)c(=O)c4)cc23)ccn1 [Example 24, (S)-1-(1-(4-chloro-3-fluorophenyl)-2-hydroxyethyl)-4-(3-(2-methylpyridin-4-yl)-1H-pyrazolo[3,4-b]pyridin-5-yl)pyridin-2(1H)-one] | 50 to 100 | 1000 to 5000
2 | Cc1cc(-c2n[nH]c3ccc(-c4ccn([C@H](CO)c5cc(F)cc(Br)c5)c(=O)c4)cc23)ccn1 [Example 26, (S)-1-(1-(3-bromo-5-fluorophenyl)-2-hydroxyethyl)-4-(3-(2-methylpyridin-4-yl)-1H-indazol-5-yl)pyridin-2(1H)-one] | < 10 | ≤ 500
3 | O=c1cc(-c2ccc3[nH]nc(N4CCC(O)C4)c3c2)ccn1[C@H](CO)c1cccc(Cl)c1 (stereo partly drawn) [Example 27, 1-((S)-1-(3-chlorophenyl)-2-hydroxyethyl)-4-(3-(3-hydroxypyrrolidin-1-yl)-1H-indazol-5-yl)pyridin-2(1H)-one] | < 10 | 1000 to 5000
4 | Cc1cc(-c2n[nH]c3ccc(-c4ccn([C@H](CO)c5cc(Cl)ccc5F)c(=O)c4)cc23)ccn1 [Example 28, (S)-1-(1-(5-chloro-2-fluorophenyl)-2-hydroxyethyl)-4-(3-(2-methylpyridin-4-yl)-1H-indazol-5-yl)pyridin-2(1H)-one] | < 10 | ≤ 500
5 | Cc1cc(-c2n[nH]c3ccc(-c4cc[nH]c(=O)c4)cc23)ccn1 [Example 29, 4-(3-(2-methylpyridin-4-yl)-1H-indazol-5-yl)pyridin-2(1H)-one] | < 10 | 1000 to 5000
6 | Cc1cc(-c2n[nH]c3ccc(-c4ccn([C@H](CO)c5ccc(F)c(Cl)c5)c(=O)c4)cc23)ccn1 [Example 30, (S)-1-(1-(3-chloro-4-fluorophenyl)-2-hydroxyethyl)-4-(3-(2-methylpyridin-4-yl)-1H-indazol-5-yl)pyridin-2(1H)-one] | < 10 | ≤ 500
7 | Cc1cc(-c2n[nH]c3ccc(-c4ccn([C@@H](CO)c5cccc(Cl)c5)c(=O)c4)cc23)ccn1 [Example 31, (R)-1-(1-(3-chlorophenyl)-2-hydroxyethyl)-4-(3-(2-methylpyridin-4-yl)-1H-indazol-5-yl)pyridin-2(1H)-one] | < 10 | 1000 to 5000
8 | Cc1cc(-c2n[nH]c3ccc(-c4ccn([C@H](CO)c5ccc(Cl)cc5)c(=O)c4)cc23)ccn1 [Example 32, (S)-1-(1-(4-chlorophenyl)-2-hydroxyethyl)-4-(3-(2-methylpyridin-4-yl)-1H-indazol-5-yl)pyridin-2(1H)-one] | < 10 | ≤ 500
9 | Cc1cc(-c2n[nH]c3ccc(-c4ccn([C@H](CO)c5cc(F)cc(C(F)(F)F)c5)c(=O)c4)cc23)ccn1 [Example 33, (S)-1-(1-(3-fluoro-5-(trifluoromethyl)phenyl)-2-hydroxyethyl)-4-(3-(2-methylpyridin-4-yl)-1H-indazol-5-yl)pyridin-2(1H)-one] | < 10 | ≤ 500
10 | CC(C)Oc1ccc(-c2n[nH]c3ccc(-c4ccn([C@H](CO)c5ccc(F)c(Cl)c5)c(=O)c4)cc23)cn1 [Example 34, (S)-1-(1-(3-chloro-4-fluorophenyl)-2-hydroxyethyl)-4-(3-(6-isopropoxypyridin-3-yl)-1H-indazol-5-yl)pyridin-2(1H)-one] | 10 to 50 | 1000 to 5000
11 | Cc1cc(-c2n[nH]c3ccc(-c4ccn([C@H](CO)c5cccc(Cl)c5F)c(=O)c4)cc23)ccn1 [Example 35, (S)-1-(1-(3-chloro-2-fluorophenyl)-2-hydroxyethyl)-4-(3-(2-methylpyridin-4-yl)-1H-indazol-5-yl)pyridin-2(1H)-one] | < 10 | ≤ 500

Now from value to compound:

Row | IC50 [1] [nM] | IC50 [2] [nM] | SMILES
12 | < 10 | ≤ 500 | Cc1cc(-c2n[nH]c3ccc(-c4ccn([C@H](CO)c5ccc(F)c(Br)c5)c(=O)c4)cc23)ccn1 [Example 36, (S)-1-(1-(3-bromo-4-fluorophenyl)-2-hydroxyethyl)-4-(3-(2-methylpyridin-4-yl)-1H-indazol-5-yl)pyridin-2(1H)-one]
13 | < 10 | ≤ 500 | Cn1cc(-c2n[nH]c3ccc(-c4ccn([C@H](CO)c5ccc(F)c(Cl)c5)c(=O)c4)cc23)cn1 [Example 37, (S)-1-(1-(3-chloro-4-fluorophenyl)-2-hydroxyethyl)-4-(3-(1-methyl-1H-pyrazol-4-yl)-1H-indazol-5-yl)pyridin-2(1H)-one]
14 | < 10 | 500 to 1000 | Cn1cc(-c2n[nH]c3ccc(-c4ccn([C@H](CO)c5ccc(Cl)c(F)c5)c(=O)c4)cc23)cn1 [Example 38, (S)-1-(1-(4-chloro-3-fluorophenyl)-2-hydroxyethyl)-4-(3-(1-methyl-1H-pyrazol-4-yl)-1H-indazol-5-yl)pyridin-2(1H)-one]
15 | < 10 | ≤ 500 | Cn1cc(-c2n[nH]c3ccc(-c4ccn([C@H](CO)c5cc(F)cc(Br)c5)c(=O)c4)cc23)cn1 [Example 39, (S)-1-(1-(3-bromo-5-fluorophenyl)-2-hydroxyethyl)-4-(3-(1-methyl-1H-pyrazol-4-yl)-1H-indazol-5-yl)pyridin-2(1H)-one]
16 | < 10 | ≤ 500 | CC(C)Oc1ccc(-c2n[nH]c3ccc(-c4ccn([C@H](CO)c5cc(F)cc(Br)c5)c(=O)c4)cc23)cn1 [Example 40, (S)-1-(1-(3-bromo-5-fluorophenyl)-2-hydroxyethyl)-4-(3-(6-isopropoxypyridin-3-yl)-1H-indazol-5-yl)pyridin-2(1H)-one]
17 | < 10 | ≤ 500 | Cn1cc(-c2n[nH]c3ccc(-c4ccn([C@H](CO)c5cc(F)cc(C(F)(F)F)c5)c(=O)c4)cc23)cn1 [Example 41, (S)-1-(1-(3-fluoro-5-(trifluoromethyl)phenyl)-2-hydroxyethyl)-4-(3-(1-methyl-1H-pyrazol-4-yl)-1H-indazol-5-yl)pyridin-2(1H)-one]
18 | < 10 | 500 to 1000 | Cn1cc(-c2n[nH]c3ccc(-c4ccn([C@H](CO)c5cccc(C(F)(F)F)c5)c(=O)c4)cc23)cn1 [Example 42, (S)-1-(2-hydroxy-1-(3-(trifluoromethyl)phenyl)ethyl)-4-(3-(1-methyl-1H-pyrazol-4-yl)-1H-indazol-5-yl)pyridin-2(1H)-one]
19 | < 10 | 1000 to 5000 | CC(C)Oc1ccc(-c2n[nH]c3ccc(-c4ccn([C@H](CO)c5cccc(C(F)(F)F)c5)c(=O)c4)cc23)cn1 [Example 43, (S)-1-(2-hydroxy-1-(3-(trifluoromethyl)phenyl)ethyl)-4-(3-(6-isopropoxypyridin-3-yl)-1H-indazol-5-yl)pyridin-2(1H)-one]
20 | < 10 | 500 to 1000 | CC(C)Oc1ccc(-c2n[nH]c3ccc(-c4ccn([C@H](CO)c5cccc(Br)c5)c(=O)c4)cc23)cn1 [Example 44, (S)-1-(1-(3-bromophenyl)-2-hydroxyethyl)-4-(3-(6-isopropoxypyridin-3-yl)-1H-indazol-5-yl)pyridin-2(1H)-one]
